Source: paper PMC3483484 (The Protein Journal, 2012)

What was measured:
[1] = design: method as in earlier work; details: cited from earlier work
[2] = biological target: T1, human serum albumin (HSA) (Homo sapiens, UniProt P02768); assay: Equilibrium dialysis: individual and simultaneous binding (displacement) of 6-MP and site I markers to HSA
T1 construct: Human serum albumin (HSA), fraction V, crystallized and lyophilized; purchased Biomed (Lublin, Poland)
Procedure: Equilibrium dialysis experiment was performed with bags of 5 cm length made from cellulose tubing, 25 mm diameter when inflated (Dialysis Tubing Cellulose Membranes with molecular weight cut-off of 12 kDa, Sigma Aldrich Co). […] The tubes were closed with parafilm, and were stirred constantly at 20 rotations per minute, at 23 °C. A solution of drug(s) in the compartment B and a solution of albumin in the compartment A were allowed to equilibrate. […] The volumes of the solutions in two compartments remained constant during the dialysis procedure and were not corrected. […] Dialysis with each ligand or mixture of ligands was performed in fivefold and the average value of C b was used as binding data. Protein concentration was 1 × 10^−5 M and ligands concentration was 0.8 × 10^−5 M.
The free-ligands concentrations in compartment B at the beginning of the dialysis and after equilibrium were determined by HPLC. […] A column of LiChrospher 100 RP-18 (5 μm in 4 × 250 mm) (Merck KGaA) was used as the stationary phase. […] All solvents were filtered and degassed prior to use. The injection volume was 50 μL in all the cases. The free ligand concentration was determined using a calibration curve obtained from the concentration of dialyzed ligand in the absence of albumin.
The bound ligand concentration (Cb) was calculated by estimation of free-ligand concentration (Cf) according to the equation [57]:1 [drawing 3] where CL(b) was concentration of bound ligand, CL(f) was final concentration of ligand in buffer compartment and CL(0) was starting concentration of ligand (total ligand concentration before equilibrium dialysis).
The percent binding before and after displacement was compared by using a two-way analysis of variance for balanced data. The confidence intervals based on the residual variance were computed for each pairs of bound fraction before and after displacement.

HSA = details: data from the literature ref 32; cited from earlier work

T1 sequence (P02768 25-609): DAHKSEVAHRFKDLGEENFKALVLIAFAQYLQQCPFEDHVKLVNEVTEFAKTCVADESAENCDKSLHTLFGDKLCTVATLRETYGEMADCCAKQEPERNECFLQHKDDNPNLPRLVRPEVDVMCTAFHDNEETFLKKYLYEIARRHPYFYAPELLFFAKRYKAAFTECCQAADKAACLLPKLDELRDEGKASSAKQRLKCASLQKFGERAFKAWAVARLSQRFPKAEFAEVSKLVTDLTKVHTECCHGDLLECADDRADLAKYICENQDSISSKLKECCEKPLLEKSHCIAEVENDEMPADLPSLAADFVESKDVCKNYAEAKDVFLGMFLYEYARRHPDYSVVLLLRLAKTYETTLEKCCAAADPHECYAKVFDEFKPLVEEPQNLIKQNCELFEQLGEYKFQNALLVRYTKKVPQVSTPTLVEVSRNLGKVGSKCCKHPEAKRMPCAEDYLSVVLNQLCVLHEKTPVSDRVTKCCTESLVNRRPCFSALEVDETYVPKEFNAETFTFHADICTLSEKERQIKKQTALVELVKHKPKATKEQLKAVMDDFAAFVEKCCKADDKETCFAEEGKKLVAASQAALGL

Row | SMILES | bound to serum proteins ([1]; humans, of the administered dose ref 39) | half-life in plasma ([1]; oral dose, humans ref 39) [min] | decrease of free fraction (Δ%) of ABE ([2]; by addition of 6-MP, versus ABE alone, p < 0.05) [%] | Kd ([2]; from fb by Eq. (6), before displacement, HSA 1 × 10^−5 M, read-out: Primary association constant log Kexp^HSA (converted)) [µM] | Bound ligand fraction (fb%) before displacement ([2]; individual binding, HSA 1 × 10^−5 M, ligand 0.8 × 10^−5 M, pH 7.4, 23 °C) [%] | Bound ligand fraction (fb%) of site marker after displacement ([2]; simultaneous binding, in presence of 6-MP, HSA 1 × 10^−5 M, ligands 0.8 × 10^−5 M) [%] | Primary association constant log Klit^HSA (HSA)
1 | Sc1ncnc2nc[nH]c12 [6-MP, 6-Mercaptopurine] | approximately 19% | 20 to 45 |  |  |  |  | 
2 | CCCCOC(=O)c1ccc(N)cc1 [ABE, n-butyl p-aminobenzoate] |  |  | 3.5 | 17 | 37.3 ± 0.7 | 39.5 ± 0.6 | 4.45
